Measurements from ChEMBL document CHEMBL1132016, “Catalytic activity of carboxypeptidase B and of carboxypeptidase Y with anisylazoformyl substrates” (Bioorg Med Chem Lett, 1999).

Legend:
[1] = Ratio of kinetic constants (kcat/km) for the inhibition against carboxypeptidase B
[2] = target: T1, Carboxypeptidase B (Sus scrofa) (UniProt P09955); test: Substrate kinetic value (kcat) against porcine carboxypeptidase B
T1 sequence (whole entry): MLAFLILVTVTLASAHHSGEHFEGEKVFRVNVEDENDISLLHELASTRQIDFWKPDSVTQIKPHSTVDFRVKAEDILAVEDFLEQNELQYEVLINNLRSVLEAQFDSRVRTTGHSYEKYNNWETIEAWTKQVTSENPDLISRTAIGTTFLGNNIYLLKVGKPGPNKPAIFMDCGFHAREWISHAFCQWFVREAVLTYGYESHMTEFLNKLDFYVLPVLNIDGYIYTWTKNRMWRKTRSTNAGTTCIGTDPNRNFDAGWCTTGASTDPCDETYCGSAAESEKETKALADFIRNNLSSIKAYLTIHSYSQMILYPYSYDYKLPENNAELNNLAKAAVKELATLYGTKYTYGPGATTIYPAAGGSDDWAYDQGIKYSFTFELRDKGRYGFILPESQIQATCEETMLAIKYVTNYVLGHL

[3] = substrate: COc1ccc(/N=N/C(=O)NC(CCCCN)C(=O)O)cc1; test: (§1) Affinity to porcine carboxypeptidase B at pH 7.9
[4] = substrate: C[C@@H](NC(=O)/C=C/c1ccco1)C(=O)N[C@@H](CCCCN)C(=O)O; test: as §1

Molecule `C[C@@H](NC(=O)/C=C/c1ccco1)C(=O)N[C@@H](CCCCN)C(=O)O` has a Ratio [1] of 36000 M⁻¹ s⁻¹.

Work on `COc1ccc(/N=N/C(=O)NC(CCCCN)C(=O)O)cc1` (stereo not given) yielded a k cat [2] of 76 s⁻¹ and a Ratio [1] of 95000 M⁻¹ s⁻¹.

B1: Carboxypeptidase B (Sus scrofa), P09955 (protein)
chain: T1 sequence (whole entry)
B1 gave a Km [3] of 810 µM and a Km [4] of 1160 µM.
